# Source: ChEMBL document CHEMBL1131387, “Dimers of 5HT1 ligands preferentially bind to 5HT1B/1D receptor subtypes” (Bioorg Med Chem Lett, 1998)
# Target: T1, 5-hydroxytryptamine receptor 1B (Homo sapiens, UniProt P28222)
# Assay: Binding affinity was evaluated at human recombinant 5-hydroxytryptamine 1B receptor using [3H]5-CT as radioligand
# T1 sequence (P28222 whole entry): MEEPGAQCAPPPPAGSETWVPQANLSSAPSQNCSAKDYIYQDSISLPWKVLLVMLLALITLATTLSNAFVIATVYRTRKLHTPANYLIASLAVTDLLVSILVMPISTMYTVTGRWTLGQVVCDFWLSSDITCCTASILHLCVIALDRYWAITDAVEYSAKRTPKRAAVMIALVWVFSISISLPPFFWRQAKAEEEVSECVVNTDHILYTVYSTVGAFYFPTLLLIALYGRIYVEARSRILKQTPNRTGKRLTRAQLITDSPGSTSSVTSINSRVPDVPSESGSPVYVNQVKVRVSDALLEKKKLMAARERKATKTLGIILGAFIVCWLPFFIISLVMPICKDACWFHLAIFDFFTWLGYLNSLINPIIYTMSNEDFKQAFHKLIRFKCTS
row,Ki,Structure (SMILES)
1,2.1 nM,CN1CCN(c2cccc3ccc(OCCOc4ccc5cccc(N6CCN(C)CC6)c5c4)cc23)CC1
2,2.56 nM,CN1CCN(c2cccc3ccc(OCC(=O)N4CCN(C(=O)COc5ccc6cccc(N7CCN(C)CC7)c6c5)CC4)cc23)CC1
3,0.76 nM,CN1CCN(c2cccc3ccc(OCCOc4ccc5[nH]cc(CCN)c5c4)cc23)CC1

# More lines, now with the values behind:
row,Structure (SMILES),Ki
1,CN1CCN(c2cccc3ccc(OCC(=O)Nc4ccc(NC(=O)COc5ccc6[nH]cc(CCN)c6c5)cc4)cc23)CC1,0.7 nM
2,CCCN(CCC)C1CCc2cccc(OCCCCCCOc3cccc4c3CC(N(CCC)CCC)CC4)c2C1 (configuration not stated),6.4 nM
3,c1ccc2c(N3CCNCC3)cccc2c1,10.6 nM

# Target: T1, 5-hydroxytryptamine receptor 1B
# Assay: The intrinsic activity was evaluated for its ability to inhibit forskolin-stimulated c-AMP formation mediated by cloned 5-hydroxytryptamine 1B receptor in CHO cell line; Antagonist
# Type: functional, cell-based
row,Structure (SMILES),EC50
1,CN1CCN(c2cccc3ccc(OCCOc4ccc5cccc(N6CCN(C)CC6)c5c4)cc23)CC1,> 1000 nM
2,c1ccc2c(N3CCNCC3)cccc2c1,> 10000 nM

# Target: T1, 5-hydroxytryptamine receptor 1B
# Assay: The intrinsic activity was evaluated for its ability to inhibit forskolin-stimulated c-AMP formation mediated by cloned 5-hydroxytryptamine 1B receptor in CHO cell line
# Type: functional, cell-based
row,EC50,Structure (SMILES)
1,50 nM,CCCN(CCC)C1CCc2cccc(OCCCCCCOc3cccc4c3CC(N(CCC)CCC)CC4)c2C1 (configuration not stated)

# Target: T1, 5-hydroxytryptamine receptor 1B
# Assay: The intrinsic activity was evaluated for its ability to inhibit forskolin-stimulated c-AMP formation mediated by cloned 5-hydroxytryptamine 1B receptor in CHO cell line; Partial Agonist
# Type: functional, cell-based
row,EC50,Structure (SMILES)
1,Partial agonist,CN1CCN(c2cccc3ccc(OCC(=O)Nc4ccc(NC(=O)COc5ccc6[nH]cc(CCN)c6c5)cc4)cc23)CC1
2,Partial agonist,CN1CCN(c2cccc3ccc(OCC(=O)N4CCN(C(=O)COc5ccc6cccc(N7CCN(C)CC7)c6c5)CC4)cc23)CC1
3,Partial agonist,CN1CCN(c2cccc3ccc(OCCOc4ccc5[nH]cc(CCN)c5c4)cc23)CC1

# Target: 5-hydroxytryptamine receptor 1D (Homo sapiens, UniProt P28221)
# Sequence (P28221 whole entry): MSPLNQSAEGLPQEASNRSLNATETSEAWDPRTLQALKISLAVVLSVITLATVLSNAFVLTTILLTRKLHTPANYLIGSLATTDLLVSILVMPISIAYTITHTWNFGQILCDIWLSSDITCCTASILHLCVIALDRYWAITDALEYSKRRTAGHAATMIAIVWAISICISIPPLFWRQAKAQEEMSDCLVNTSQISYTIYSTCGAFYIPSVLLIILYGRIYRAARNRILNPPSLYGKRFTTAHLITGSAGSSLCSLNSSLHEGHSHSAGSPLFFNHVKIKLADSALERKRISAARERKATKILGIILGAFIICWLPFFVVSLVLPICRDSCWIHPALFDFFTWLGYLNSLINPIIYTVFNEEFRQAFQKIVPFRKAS
# Assay: Binding affinity was evaluated at human recombinant 5-hydroxytryptamine 1D receptor using [3H]-5-CT as radioligand
row,Ki,Structure (SMILES)
1,1.71 nM,CN1CCN(c2cccc3ccc(OCCOc4ccc5cccc(N6CCN(C)CC6)c5c4)cc23)CC1
2,1.24 nM,CN1CCN(c2cccc3ccc(OCC(=O)N4CCN(C(=O)COc5ccc6cccc(N7CCN(C)CC7)c6c5)CC4)cc23)CC1
3,0.4 nM,CN1CCN(c2cccc3ccc(OCCOc4ccc5[nH]cc(CCN)c5c4)cc23)CC1

# Further lines, the compound ahead of its results:
row,Structure (SMILES),Ki
1,CN1CCN(c2cccc3ccc(OCC(=O)Nc4ccc(NC(=O)COc5ccc6[nH]cc(CCN)c6c5)cc4)cc23)CC1,0.5 nM
2,CCCN(CCC)C1CCc2cccc(OCCCCCCOc3cccc4c3CC(N(CCC)CCC)CC4)c2C1 (configuration not stated),3.9 nM

# Target: T2, 5-hydroxytryptamine receptor 1A (Homo sapiens, UniProt P08908)
# T2 sequence (P08908 whole entry): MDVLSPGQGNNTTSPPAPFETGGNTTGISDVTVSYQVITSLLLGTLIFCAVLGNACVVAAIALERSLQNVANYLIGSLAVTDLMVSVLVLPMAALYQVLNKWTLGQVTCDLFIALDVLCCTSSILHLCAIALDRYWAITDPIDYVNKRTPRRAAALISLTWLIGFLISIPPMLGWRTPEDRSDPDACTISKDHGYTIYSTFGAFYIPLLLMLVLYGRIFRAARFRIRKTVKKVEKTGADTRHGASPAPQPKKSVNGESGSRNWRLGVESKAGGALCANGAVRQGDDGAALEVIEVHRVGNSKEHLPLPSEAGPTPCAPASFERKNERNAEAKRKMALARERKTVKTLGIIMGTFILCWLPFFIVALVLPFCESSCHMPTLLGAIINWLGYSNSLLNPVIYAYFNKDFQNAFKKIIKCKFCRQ
# Assay: Binding affinity was evaluated at human recombinant 5-hydroxytryptamine 1A receptor using [3H]8-OH-DPAT as radioligand
row,Ki,Structure (SMILES)
1,14 nM,CN1CCN(c2cccc3ccc(OCCOc4ccc5cccc(N6CCN(C)CC6)c5c4)cc23)CC1
2,4 nM,CN1CCN(c2cccc3ccc(OCC(=O)N4CCN(C(=O)COc5ccc6cccc(N7CCN(C)CC7)c6c5)CC4)cc23)CC1
3,0.96 nM,CN1CCN(c2cccc3ccc(OCCOc4ccc5[nH]cc(CCN)c5c4)cc23)CC1

# The remaining lines, values behind:
row,Structure (SMILES),Ki
1,CN1CCN(c2cccc3ccc(OCC(=O)Nc4ccc(NC(=O)COc5ccc6[nH]cc(CCN)c6c5)cc4)cc23)CC1,5.8 nM
2,CCCN(CCC)C1CCc2cccc(OCCCCCCOc3cccc4c3CC(N(CCC)CCC)CC4)c2C1 (configuration not stated),6.8 nM
